# Data reported in patent publication US20060069132A1, “Azolecarboxamide herbicides” (priority 2004, published 2006).
# Assays:
# [1] = system: late watergrass; assay: Test D flooded paddy test; type: in vivo, Echinochloa oryzicola; conditions: 21 days, scale 0 to 100
# [2] = system: common chickweed; assay: Test E pre-/postemergence herbicide test; type: in vivo, Stellaria media
# Procedure, shortened: (§1)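 Test chemicals in a non-phytotoxic solvent mixture with surfactant applied preemergence to planted seeds and postemergence to plants 2 to 18 cm tall (1- to 4-leaf stage). After 12 to 14 days in the greenhouse, injury rated visually against untreated controls on a 0–100 scale (0 no effect, 100 complete control).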
# [3] = system: common mallow; assay: Test E pre-/postemergence herbicide test; type: in vivo, Malva sylvestris
# Procedure, shortened: as §1
# [4] = system: field bindweed; assay: Test E pre-/postemergence herbicide test; type: in vivo, Convolvulus arvensis
# Procedure, shortened: as §1
# [5] = system: pitted morningglory; assay: Test E pre-/postemergence herbicide test; type: in vivo, Ipomoea lacunosa
# Procedure, shortened: as §1
# [6] = system: barnyardgrass; assay: Test D flooded paddy test; type: in vivo, Echinochloa crus-galli; conditions: 21 days, scale 0 to 100
# Excerpt: (§2) Three plastic pots (ca. 16-cm diameter) per rate were partially filled with sterilized Tama silt loam soil comprising a 35:50:15 ratio of sand, silt and clay and 2.6% organic matter. Separate plantings for each of the three pots were as follows. Seeds from the U.S. of ducksalad (Heteranthera limosa (Sw.) Willd.), smallflower umbrella sedge (Cyperus difformis L.) and purple redstem (Ammannia coccinea Rottb.), were planted into one 16-cm pot for each rate. Seeds from the U.S. of rice flatsedge (Cyperus iria L.), bearded sprangletop (Leptochloa fascicularis (Lam.) Gray), one stand of 9 or 10 water seeded rice seedlings (Oryza sativa L. cv. ‘Japonica—M202’), and one stand of 6 transplanted rice seedlings (Oryza sativa L. cv. ‘Japonica—M202’) were planted into one 16-cm pot for each rate. Seeds from the U.S. of barnyardgrass (Echinochloa crus-galli (L.) Beauv.), late watergrass (Echinochloa oryzicola Vasinger), early watergrass (Echinochloa oryzoides (Ard.) Fritsch) and junglerice (Echinochloa colona (L.) Link) were planted into one 16-cm pot for each rate. Plantings were sequential so that crop and weed species were at the 2.0 to 2.5-leaf stage at time of treatment.
# (§3) Potted plants were grown in a greenhouse with day/night temperature settings of 29.5/26.7° C., and supplemental balanced lighting was provided to maintain a 16-hour photoperiod. Test pots were maintained in the greenhouse until test completion.
# (§4) At time of treatment, test pots were flooded to 3 cm above the soil surface, treated by application of test compounds directly to the paddy water, and then maintained at that water depth for the duration of the test. Effects of treatments on rice and weeds were visually evaluated by comparison to untreated controls after 21 days. Plant response ratings are reported on a 0 to 100 scale; where 0 is no effect and 100 is complete control. A dash (-) response means no test result.
# [7] = system: ducksalad; assay: Test D flooded paddy test; type: in vivo, Heteranthera limosa; conditions: 21 days, scale 0 to 100
# Excerpt: as §2, §3, §4
# [8] = system: Italian ryegrass; assay: Test E pre-/postemergence herbicide test; type: in vivo, Lolium multiflorum
# Procedure, shortened: as §1
# [9] = system: guineagrass; assay: Test E pre-/postemergence herbicide test; type: in vivo, Panicum maximum
# Procedure, shortened: as §1
# [10] = system: southern sandbur; assay: Test E pre-/postemergence herbicide test; type: in vivo, Cenchrus echinatus
# Procedure, shortened: as §1
# [11] = Postemergence, 500 g ai/ha, scale 0 to 100
# [12] = Preemergence, 62 g ai/ha, scale 0 to 100
# [13] = Preemergence, 125 g ai/ha, scale 0 to 100
# [14] = Preemergence, 250 g ai/ha, scale 0 (no effect) to 100 (complete control)
# [15] = Preemergence, 500 g ai/ha, scale 0 (no effect) to 100 (complete control)
# [16] = Postemergence, 250 g ai/ha, scale 0 to 100
# [17] = postemergence, 125 g ai/ha, scale 0 to 100
compound,measurement,setting,value
CCNC(=O)c1ccnc(NC(=O)c2cc(C(C)(C)C)nn2CC)c1 [Compound 152],"Plant response rating, Watergrass, Late",[1]; 8 g ai/ha,0
same,"Plant response rating, Watergrass, Late",[1]; 16 g ai/ha,0
same,"Plant response rating, Watergrass, Late",[1]; 32 g ai/ha,15
same,"Plant response rating, Watergrass, Late",[1]; 64 g ai/ha,20
same,"Plant response rating, Watergrass, Late",[1]; 125 g ai/ha,40
same,"Plant response rating, Chickweed",[2]; [11],100
same,"Plant response rating, Chickweed",[2]; [12],90
same,"Plant response rating, Chickweed",[2]; [13],95
same,"Plant response rating, Chickweed",[2]; [14],100
same,"Plant response rating, Chickweed",[2]; [15],100
same,"Plant response rating, Mallow",[3]; [11],50
same,"Plant response rating, Mallow",[3]; [16],50
same,"Plant response rating, Mallow",[3]; [12],40
same,"Plant response rating, Mallow",[3]; [13],80
same,"Plant response rating, Mallow",[3]; [14],90
same,"Plant response rating, Mallow",[3]; [15],90
same,"Plant response rating, Bindweed, Field",[4]; [11],50
same,"Plant response rating, Bindweed, Field",[4]; [16],30
same,"Plant response rating, Bindweed, Field",[4]; [12],10
same,"Plant response rating, Bindweed, Field",[4]; [13],20
same,"Plant response rating, Bindweed, Field",[4]; [14],60
same,"Plant response rating, Bindweed, Field",[4]; [15],90
same,"Plant response rating, Bindweed, Field",[4]; [17],30
same,"Plant response rating, Morningglory",[5]; [11],30
same,"Plant response rating, Morningglory",[5]; [16],20
same,"Plant response rating, Morningglory",[5]; [12],10
same,"Plant response rating, Morningglory",[5]; [13],10
same,"Plant response rating, Morningglory",[5]; [14],40
same,"Plant response rating, Morningglory",[5]; [15],40
same,"Plant response rating, Morningglory",[5]; [17],10
same,"Plant response rating, Barnyardgrass",[6]; 8 g ai/ha,0
same,"Plant response rating, Barnyardgrass",[6]; 16 g ai/ha,0
same,"Plant response rating, Barnyardgrass",[6]; 32 g ai/ha,0
same,"Plant response rating, Barnyardgrass",[6]; 64 g ai/ha,10
same,"Plant response rating, Barnyardgrass",[6]; 125 g ai/ha,35
same,"Plant response rating, Ducksalad",[7]; 8 g ai/ha,0
same,"Plant response rating, Ducksalad",[7]; 16 g ai/ha,70
same,"Plant response rating, Ducksalad",[7]; 32 g ai/ha,75
same,"Plant response rating, Ducksalad",[7]; 64 g ai/ha,80
same,"Plant response rating, Ducksalad",[7]; 125 g ai/ha,90
same,"Plant response rating, Ryegrass, Italian",[8]; [11],90
same,"Plant response rating, Ryegrass, Italian",[8]; [16],90
same,"Plant response rating, Ryegrass, Italian",[8]; [12],20
same,"Plant response rating, Ryegrass, Italian",[8]; [13],50
same,"Plant response rating, Ryegrass, Italian",[8]; [14],80
same,"Plant response rating, Ryegrass, Italian",[8]; [15],95
same,"Plant response rating, Ryegrass, Italian",[8]; [17],90
same,"Plant response rating, Guineagrass",[9]; [11],80
same,"Plant response rating, Guineagrass",[9]; [16],70
same,"Plant response rating, Guineagrass",[9]; [12],20
same,"Plant response rating, Guineagrass",[9]; [13],50
same,"Plant response rating, Guineagrass",[9]; [14],80
same,"Plant response rating, Guineagrass",[9]; [15],100
same,"Plant response rating, Sandbur",[10]; [11],100
same,"Plant response rating, Sandbur",[10]; [16],40
same,"Plant response rating, Sandbur",[10]; [12],10
same,"Plant response rating, Sandbur",[10]; [13],30
same,"Plant response rating, Sandbur",[10]; [14],70
same,"Plant response rating, Sandbur",[10]; [15],80
same,"Plant response rating, Sandbur",[10]; [17],20
